Measured values from patent US9603364B2 (Dow AgroSciences LLC, priority 2013, dated 2017).

Columns and labels:
Experiment in all cases: General post-emergent herbicidal activity, foliar application
Type in all cases: in vivo
Oryza sativa L. (rice) = settings: Oryza sativa, 336 h, scored after 14 days, read-out: % Visual Growth Reduction ORYSA; for plant injury at 70 g/ha: 70 g ai/ha; for plant injury at 140 g/ha: 140 g ai/ha; for plant injury at 280 g/ha: 280 g ai/ha
Outline: (§1)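 Compounds in acetone/DMSO (97:3) diluted into aqueous spray with isopropanol, Atplus 411F crop oil and Triton X-155; top rate plus 1/2×–1/16× serial rates applied to foliage, solvent blank as control. Greenhouse, sub-irrigated; visual injury versus untreated plants scored 0–100% (100 = complete kill) after 14 days.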

Zea mays L. (corn) = settings: 336 h, scored after 14 days, read-out: % Visual Growth Reduction ZEAMX; for plant injury at 70 g/ha: 70 g ai/ha; for plant injury at 140 g/ha: 140 g ai/ha; for plant injury at 280 g/ha: 280 g ai/ha
Outline: as §1

[1] = system: Echinochloa crus-galli (L.) Beauv. (barnyardgrass); settings: for pest or weed control at 70 g/ha: 70 g ai/ha; for pest or weed control at 140 g/ha: 140 g ai/ha; for pest or weed control at 280 g/ha: 280 g ai/ha; for GR80 Value ECHCG: calculated by probit analysis, dose for 80% visual injury, may be extrapolated
Outline: (§2)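 Compounds in acetone/DMSO (97:3) were diluted into aqueous spray containing isopropyl alcohol, Atplus 411F crop oil and Triton X-155, then applied post-emergence to foliage at a top rate plus 1/2× to 1/16× serial dilutions. Injury was scored visually (0–100%) after 14 days in a sub-irrigated greenhouse versus untreated plants. GR20/GR50/GR80 were derived by probit analysis, with some GR80 values extrapolated from curve slope.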

[2] = system: Helianthus annuus L. (sunflower, common); settings: for pest or weed control at 70 g/ha: 70 g ai/ha; for pest or weed control at 140 g/ha: 140 g ai/ha; for pest or weed control at 280 g/ha: 280 g ai/ha; for GR80 Value HELAN: calculated by probit analysis, dose for 80% visual injury, may be extrapolated
Outline: as §2

[3] = system: Chenopodium album L. (lambsquarters, common); settings: for pest or weed control at 70 g/ha: 70 g ai/ha; for pest or weed control at 140 g/ha: 140 g ai/ha; for pest or weed control at 280 g/ha: 280 g ai/ha; for GR80 Value CHEAL: calculated by probit analysis, dose for 80% visual injury, may be extrapolated
Outline: as §2

[4] = system: Euphorbia heterophylla L. (poinsettia, wild); settings: for pest or weed control at 70 g/ha: 70 g ai/ha; for pest or weed control at 140 g/ha: 140 g ai/ha; for pest or weed control at 280 g/ha: 280 g ai/ha; for GR80 Value EPHHL: calculated by probit analysis, dose for 80% visual injury, may be extrapolated
Outline: as §2

[5] = system: Amaranthus retroflexus L. (pigweed, redroot); settings: for pest or weed control at 70 g/ha: 70 g ai/ha; for pest or weed control at 140 g/ha: 140 g ai/ha; for pest or weed control at 280 g/ha: 280 g ai/ha; for GR80 Value AMARE: calculated by probit analysis, dose for 80% visual injury, may be extrapolated
Outline: as §2

[6] = system: Viola tricolor L. (pansy); settings: for pest or weed control at 70 g/ha: 70 g ai/ha; for pest or weed control at 140 g/ha: 140 g ai/ha; for pest or weed control at 280 g/ha: 280 g ai/ha; for GR80 Value VIOTR: calculated by probit analysis, dose for 80% visual injury, may be extrapolated
Outline: as §2

[7] = Echinochloa crus-galli, 336 h, foliar post-emergent, scored after 14 days, read-out: % Visual Growth Reduction ECHCG
[8] = Helianthus annuus, 336 h, foliar post-emergent, scored after 14 days, read-out: % Visual Growth Reduction HELAN
[9] = Chenopodium album, 336 h, foliar post-emergent, scored after 14 days, read-out: % Visual Growth Reduction CHEAL
[10] = Euphorbia heterophylla, 336 h, foliar post-emergent, scored after 14 days, read-out: % Visual Growth Reduction EPHHL
[11] = Amaranthus retroflexus, 336 h, foliar post-emergent, scored after 14 days, read-out: % Visual Growth Reduction AMARE
[12] = Viola tricolor, 336 h, foliar post-emergent, scored after 14 days, read-out: % Visual Growth Reduction VIOTR

SMILES | plant injury at 70 g/ha (Oryza sativa L. (rice)) [%] | plant injury at 140 g/ha (Oryza sativa L. (rice)) [%] | plant injury at 280 g/ha (Oryza sativa L. (rice)) [%] | plant injury at 70 g/ha (Zea mays L. (corn)) [%] | plant injury at 140 g/ha (Zea mays L. (corn)) [%] | plant injury at 280 g/ha (Zea mays L. (corn)) [%] | pest or weed control at 70 g/ha [1, 7] [%] | pest or weed control at 140 g/ha [1, 7] [%] | pest or weed control at 280 g/ha [1, 7] [%] | GR80 Value ECHCG [1] [g ai/ha] | pest or weed control at 140 g/ha [2, 8] [%] | GR80 Value HELAN [2] [g ai/ha] | pest or weed control at 140 g/ha [3, 9] [%] | GR80 Value CHEAL [3] [g ai/ha] | pest or weed control at 140 g/ha [4, 10] [%] | GR80 Value EPHHL [4] [g ai/ha] | pest or weed control at 140 g/ha [5, 11] [%] | GR80 Value AMARE [5] [g ai/ha] | pest or weed control at 140 g/ha [6, 12] [%] | GR80 Value VIOTR [6] [g ai/ha] | further results
Nc1c(F)c(CF)nc(C(=O)O)c1Cl [Compound F36, 4-Amino-3-chloro-5-fluoro-6-(fluoromethyl)picolinic acid] | 10 | 20 | 30 | 20 | 40 | 70 | 50 | 80 | 95 | 132 | 85 | 70 | 100 | 36.1 | 100 | <17.5 | 100 | <17.5 | 80 | 246 | plant injury at 35 g/ha (Oryza sativa L. (rice); 35 g ai/ha): 0%; plant injury at 35 g/ha (Zea mays L. (corn); 35 g ai/ha): 0%; pest or weed control at 35 g/ha ([1]; Echinochloa crus-galli, 336 h, 35 g ai/ha, foliar post-emergent, scored after 14 days, read-out: % Visual Growth Reduction ECHCG): 50%; pest or weed control at 35 g/ha ([2]; Helianthus annuus, 336 h, 35 g ai/ha, foliar post-emergent, scored after 14 days, read-out: % Visual Growth Reduction HELAN): 70%; pest or weed control at 70 g/ha [2, 8]: 80%; pest or weed control at 280 g/ha [2, 8]: 90%; pest or weed control at 35 g/ha ([3]; Chenopodium album, 336 h, 35 g ai/ha, foliar post-emergent, scored after 14 days, read-out: % Visual Growth Reduction CHEAL): 80%; pest or weed control at 70 g/ha [3, 9]: 100%; pest or weed control at 280 g/ha [3, 9]: 100%; pest or weed control at 35 g/ha ([4]; Euphorbia heterophylla, 336 h, 35 g ai/ha, foliar post-emergent, scored after 14 days, read-out: % Visual Growth Reduction EPHHL): 100%; pest or weed control at 70 g/ha [4, 10]: 100%; pest or weed control at 280 g/ha [4, 10]: 100%; pest or weed control at 35 g/ha ([5]; Amaranthus retroflexus, 336 h, 35 g ai/ha, foliar post-emergent, scored after 14 days, read-out: % Visual Growth Reduction AMARE): 100%; pest or weed control at 70 g/ha [5, 11]: 100%; pest or weed control at 280 g/ha [5, 11]: 100%; pest or weed control at 35 g/ha ([6]; Viola tricolor, 336 h, 35 g ai/ha, foliar post-emergent, scored after 14 days, read-out: % Visual Growth Reduction VIOTR): 10%; pest or weed control at 70 g/ha [6, 12]: 20%; pest or weed control at 280 g/ha [6, 12]: 75%
COC(=O)c1nc(CCF)cc(N)c1Cl [Compound F31, methyl 4-amino-3-chloro-6-(2-fluoroethyl)picolinate] | – | – | – | – | – | – | – | – | – | >180 | – | 42.4 | – | 6.93 | – | <17.5 | – | <17.5 | – | 74.4 | plant injury at 180 g/ha (Oryza sativa L. (rice); 180 g ai/ha): 0%; plant injury at 180 g/ha (Zea mays L. (corn); 180 g ai/ha): 0%; pest or weed control at 180 g/ha ([1]; Echinochloa crus-galli, 336 h, 180 g ai/ha, foliar post-emergent, scored after 14 days, read-out: % Visual Growth Reduction ECHCG): 0%; pest or weed control at 180 g/ha ([2]; Helianthus annuus, 336 h, 180 g ai/ha, foliar post-emergent, scored after 14 days, read-out: % Visual Growth Reduction HELAN): 90%; pest or weed control at 180 g/ha ([3]; Chenopodium album, 336 h, 180 g ai/ha, foliar post-emergent, scored after 14 days, read-out: % Visual Growth Reduction CHEAL): 100%; pest or weed control at 180 g/ha ([4]; Euphorbia heterophylla, 336 h, 180 g ai/ha, foliar post-emergent, scored after 14 days, read-out: % Visual Growth Reduction EPHHL): 45%; pest or weed control at 180 g/ha ([5]; Amaranthus retroflexus, 336 h, 180 g ai/ha, foliar post-emergent, scored after 14 days, read-out: % Visual Growth Reduction AMARE): 15%; pest or weed control at 180 g/ha ([6]; Viola tricolor, 336 h, 180 g ai/ha, foliar post-emergent, scored after 14 days, read-out: % Visual Growth Reduction VIOTR): 100%
COC(=O)c1nc(C(F)F)c(F)c(N)c1Cl [Compound F3, methyl 4-amino-3-chloro-6-(difluoromethyl)-5-fluoropicolinate] | 0 | 0 | 0 | 0 | 0 | 10 | 0 | 0 | 10 | >280 | 90 | 32.5 | 100 | <17.5 | 75 | 193 | 50 | 112 | 5 | >280 | pest or weed control at 70 g/ha [2, 8]: 90%; pest or weed control at 280 g/ha [2, 8]: 90%; pest or weed control at 70 g/ha [3, 9]: 100%; pest or weed control at 280 g/ha [3, 9]: 100%; pest or weed control at 70 g/ha [4, 10]: 50%; pest or weed control at 280 g/ha [4, 10]: 85%; pest or weed control at 70 g/ha [5, 11]: 5%; pest or weed control at 280 g/ha [5, 11]: 90%; pest or weed control at 70 g/ha [6, 12]: 0%; pest or weed control at 280 g/ha [6, 12]: 10%
COC(=O)c1nc(C(F)F)c(Cl)c(N)c1Cl [Compound F7, Methyl 4-amino-3,5-dichloro-6-(difluoromethyl)picolinate] | 0 | 0 | 0 | 0 | 0 | 10 | 0 | 0 | 0 | >280 | 80 | 145 | 0 | >280 | 100 | 17.5 | 90 | 84.2 | 0 | >280 | pest or weed control at 70 g/ha [2, 8]: 60%; pest or weed control at 280 g/ha [2, 8]: 90%; pest or weed control at 70 g/ha [3, 9]: 0%; pest or weed control at 280 g/ha [3, 9]: 0%; pest or weed control at 70 g/ha [4, 10]: 90%; pest or weed control at 280 g/ha [4, 10]: 100%; pest or weed control at 70 g/ha [5, 11]: 75%; pest or weed control at 280 g/ha [5, 11]: 100%; pest or weed control at 70 g/ha [6, 12]: 0%; pest or weed control at 280 g/ha [6, 12]: 0%
COC(=O)c1nc(C(F)=C(F)F)cc(N)c1Cl [Compound F17] | – | 0 | – | – | 0 | – | – | 0 | – | – | 60 | – | 0 | – | 0 | – | 0 | – | 0 | – | –
